Reference: US20230016424A1, “HYBRID AMIDE DERIVATIVES OF AMPHOTERICIN B” (The Board of Trustees of the University of Illinois, priority 2019, published 2023)
≈ marks a conversion by molar mass, not a printed value. Where “and” joins values, the source holds several entries; their conditions need not be identical. Equal entries are not always repeated.

How the values were obtained:
[1] = tested on: A. calldoustus; assay: MIC against moulds; format: cell-based; details: 6 isolates
[2] = tested on: A. tubingensis; assay: MIC against moulds; format: cell-based; details: 6 isolates
[3] = tested on: Mucor circinelloides; assay: MIC against moulds; format: cell-based; details: 6 isolates
[4] = tested on: Mucor velutinosus; assay: MIC against moulds; format: cell-based; details: 6 isolates
[5] = tested on: Coccidioides posadasii; assay: microbe, parasite or virus in culture; format: cell-based
[6] = tested on: Fusarium solani; assay: MIC against moulds; format: cell-based; details: 6 isolates
[7] = tested on: P. variotii MYA-3630 (QC); assay: MIC against moulds; format: cell-based; details: 5 isolates
[8] = tested on: Licht. Ramosa; assay: MIC against moulds; format: cell-based; details: 6 isolates
[9] = tested on: Claophialophora bantiana; assay: MIC against moulds; format: cell-based; details: 6 isolates
[10] = tested on: Fonsecaea sp.; assay: MIC against moulds; format: cell-based; details: 6 isolates
[11] = tested on: Apophysomyces sp.; assay: MIC against moulds; format: cell-based; details: 3 isolates
[12] = tested on: Different Moulds; assay: Average MIC against different moulds; format: cell-based; design: MICavg moulds (159 strains): unit not given beside the values; details: for MIC: 157 isolates
[13] = tested on: Candida parapsilosis; assay: MIC against yeasts; format: cell-based; details: 8 isolates
[14] = tested on: Cryptococcus gattii; assay: MIC against yeasts; format: cell-based; details: 10 isolates
[15] = tested on: Rhodotorula sp.; assay: MIC against yeasts; format: cell-based; details: 6 isolates
[16] = tested on: Sporothrix schenckii; assay: MIC against rare moulds resistant to AmB; format: cell-based; details: 6 isolates
[17] = tested on: Scedosporium aurantiacum; assay: MIC against rare moulds resistant to AmB; format: cell-based; details: 4 isolates
[18] = tested on: Scedosporium boydii; assay: MIC against rare moulds resistant to AmB; format: cell-based; details: 6 isolates
[19] = Plasma Stability; format: in vitro ADME; details: for half-life at 1 µM: pH 7.4
Procedure, shortened: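 Compound incubated in plasma at 37 °C, sampled in triplicate at 0, 10, 30, 60 and 120 min. Samples quenched with acetonitrile containing internal standards, centrifuged, and supernatant analysed by LC-MS/MS.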

[20] = Liver microsome stability, summary for all species; format: in vitro ADME; details: Mouse, rat, dog, monkey, human: All species
Protocol: Working Compound solution: 10 uM in 50 mM potassium phosphate buffer with 9% MeOH and 1% DMSO
Microsome solution: working concentration 0.625 mg/ml
Stopping solution: Cold ACN with 200 ng/ml Tolbutamide and 200 ng/ml Labetalol (4° C.)
Procedure: In the well plates (T5, T10, T20, T30, T60, NCF60 (no cofactor 60)) 10 uL of the compound/control working solution was added (except T0 and matric blank) followed by microsome solution (80 uL) and the mixture was incubated at 37 C for about 10 mins. A solution of potassium phosphate (10 ul of 50 mM) was added to NCF60 well, incubated at 37 C and time counting started. After prewarming 10 ul of NADPH regenerating solution was added to each plate to start the reaction. At different time point 300 uL/well of stopping solution to terminate the reaction. The sampling plates were shaken for 10 mins and the centrifuged for 20 mins at 4000 rpm. The supernatant was half diluted with ultra pure water and the analyzed using LCMS.

[21] = biological target: T1, CYP2C19 (Homo sapiens, UniProt P33261); assay: CYP Inhibition; format: in vitro ADME; details: human liver microsome; for P450 2C19 % Inhibition: 10 um
T1 construct: 158 ul of human liver microsome (HLM) was added to all the wells; from tissue; host or cells: human liver microsomes
T1 sequence (P33261 whole entry): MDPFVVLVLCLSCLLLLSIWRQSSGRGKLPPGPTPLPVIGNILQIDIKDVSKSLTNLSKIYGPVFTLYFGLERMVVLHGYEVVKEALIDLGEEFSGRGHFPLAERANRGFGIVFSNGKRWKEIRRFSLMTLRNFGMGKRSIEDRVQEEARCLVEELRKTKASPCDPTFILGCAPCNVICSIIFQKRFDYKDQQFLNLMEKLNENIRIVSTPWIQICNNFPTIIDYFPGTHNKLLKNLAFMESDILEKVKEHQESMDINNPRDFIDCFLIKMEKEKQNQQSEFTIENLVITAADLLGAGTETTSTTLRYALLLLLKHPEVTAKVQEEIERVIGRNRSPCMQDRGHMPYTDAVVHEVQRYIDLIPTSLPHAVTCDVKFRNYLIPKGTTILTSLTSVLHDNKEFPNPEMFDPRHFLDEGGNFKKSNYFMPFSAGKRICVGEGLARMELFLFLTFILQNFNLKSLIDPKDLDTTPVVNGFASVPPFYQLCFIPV

[22] = tested on: human erythrocytes; assay: MHC hemolysis assay; format: cell-based
Protocol: MHC (FIG. 21B): The protocol for the hemolysis assay was adapted from the report of Paquet and coworkers (Chem. Eur. J. 2008, 14, 2465-2481). Whole human blood (sodium heparin) was purchased from Bioreclamation LLC (Westbury, N.Y.) and stored at 4° C. and used within two days of receipt. To a 2.0 mL eppendorf tube, 1 mL of whole human blood was added and centrifuged at 10,000 g for 2 minutes. The supernatant was removed and the erythrocyte pellet was washed with 1 mL of sterile saline and centrifuged at 10,000 g for 2 minutes. The saline wash was repeated for a total of three washes. The erythrocyte pellet was suspended in 1 mL of RBC buffer (10 mM NaH2PO4, 150 mM NaCl, 1 mM MgCl2, pH 7.4) to form the erythrocyte stock suspension.
Compounds were prepared as >15 mM stock solutions in DMSO and serially diluted to the following concentrations with DMSO: 7689, 5126, 2563, 2050, 1538, 1025, 769, 513, 384, 256, 205, 154, 103, 77, 51, 26 μM. To a 0.2 mL PCR tube, 24 μL of RBC buffer and 1 μL of compound stock solution were added, which gave final concentrations of […]. Positive and negative controls were prepared by adding 1 μL of DMSO to MilliQ water or RBC buffer, respectively to 0.2 mL PCR tube. To each PCR tube, 0.63 μL of the erythrocyte stock suspension was added and mixed by inversion. The samples were incubated at 37° C. for 2 hours. The samples were mixed by inversion and centrifuged at 10,000 g for 2 minutes. 15 μL of the supernatant from each sample was added to a 384-well place. Absorbances were read at 540 nm using a Biotek H1 Synergy Hybrid Reader (Wanooski, Vt.). Experiments were performed in triplicate and the reported MHC represents an average of three experiments.

[23] = Solubility in D5W; details: for Solubility in D5W: 5% dextrose in water, room temperature; for Fold of Increase w.r.t. AmB (solubility): D5W
[24] = hemolysis, human erythrocytes, 37° C. 2 hours

`CC1C=CC=CC=CC=CC=CC=CC=CC(OC2OC(C)C(O)C(N)C2O)CC2OC(O)(CC(O)CC(O)C(O)CCC(O)CC(O)CC(=O)OC(C)C(C)C1O)CC(O)C2C(=O)NCCO` (stereo not shown) [Compound BA] showed an MIC [1] of 1.67 µM (≈ 1.62 µg/mL), an MIC [2] of 0.92 µM (≈ 0.89 µg/mL) and an MIC [3] of 1 µM (≈ 0.967 µg/mL). For the same molecule, the MIC [4] was 1.25 µM (≈ 1.21 µg/mL), the “MIC Coccidioides posadasii” value [5] was 0.46 µM (≈ 0.445 µg/mL) and the MIC [6] was 8.67 µM (≈ 8.39 µg/mL). It also gave an MIC [7] of 2.7 µM (≈ 2.61 µg/mL), an MIC [8] of 1.1 µM (≈ 1.06 µg/mL) and an MIC [9] of 2 µM (≈ 1.93 µg/mL). For the same molecule, the MIC [10] was 0.06 µM (≈ 0.058 µg/mL), the MIC [11] was 16 µM (≈ 15.5 µg/mL) and the “MICavg moulds (159 strains)” value [12] was 2.3. The MIC [12] was 2.3 µM (≈ 2.22 µg/mL), the MIC [13] was 2.5 µM (≈ 2.42 µg/mL) and the MIC [14] was 2 µM (≈ 1.93 µg/mL). For the same molecule, the MIC [15] was 3.3 µM (≈ 3.19 µg/mL), the MIC [16] was 6 µM (≈ 5.8 µg/mL) and the MIC [17] was >16 µM. For the same molecule, the MIC [18] was >16 µM, the “% Remaining at 120 min” value ([19]; Human Plasma) was 118% and the “Half Life” value ([19]; Human Plasma) was >289 min and >289; >289 min. For the same molecule, the “% Remaining at 120 min” value ([19]; Mouse Plasma) was 100%, the “Half Life” value ([19]; Mouse Plasma) was >289 min and >289; >289 min and the “Liver microsome T1/2” value [20] was >2.42 h. For the same molecule, the “P450 2C19 % Inhibition” value [21] was 26.0%, the MHC [22, 24] was >500 µM and the MHC ([22]; summary table, unit not given) was >500. For the same molecule, the “Solubility in D5W” value [23] was >2600 µM and the “Fold of Increase w.r.t. AmB (solubility)” value [23] was >113.

`C[C@@H]1[C@H](O)[C@@H](C)/C=C/C=C/C=C/C=C/C=C/C=C/C=C/[C@H](OC2O[C@H](C)[C@@H](O)[C@H](N)[C@@H]2O)C[C@@H]2O[C@](O)(C[C@@H](O)C[C@@H](O)[C@H](O)CC[C@@H](O)C[C@@H](O)CC(=O)O[C@H]1C)C[C@H](O)[C@H]2C(=O)O` (stereo partly shown) [AmB, Amphotericin B] showed an MIC [1] of 1.5 µM (≈ 1.39 µg/mL), an MIC ([2]; Aspergillus tubingensis) of 0.125 µM (≈ 0.116 µg/mL) and an MIC ([3]; Mucor circinelloides) of 0.125 µM (≈ 0.116 µg/mL). For the same molecule, the MIC ([4]; Mucor velutinosus) was 0.08 µM (≈ 0.0739 µg/mL), the MIC ([5]; Coccidioides posadasii, read-out: MIC Coccidioides posadasii) was 0.06 µM (≈ 0.0554 µg/mL) and the MIC ([6]; Fusarium solani) was 1.33 µM (≈ 1.23 µg/mL). The MIC ([7]; Paecilomyces variotii) was 1 µM (≈ 0.924 µg/mL), the MIC [8] was 0.15 µM (≈ 0.139 µg/mL) and the MIC [9] was 0.375 µM (≈ 0.347 µg/mL). The MIC ([10]; Fonsecaea) was < 0.03 µM, the MIC [11] was 0.75 µM (≈ 0.693 µg/mL) and the “MICavg moulds (159 strains)” value [12] was 0.9. For the same molecule, the MIC [12] was 0.9 µM (≈ 0.832 µg/mL), the MIC ([13]; Lodderomyces parapsilosis) was 1.1 µM (≈ 1.02 µg/mL) and the MIC ([14]; Cryptococcus gattii) was 0.75 µM (≈ 0.693 µg/mL). The MIC ([15]; Rhodotorula) was 1 µM (≈ 0.924 µg/mL), the MIC ([16]; Sporothrix schenckii) was 4 µM (≈ 3.7 µg/mL) and the MIC ([17]; Scedosporium aurantiacum) was > 16 µM. The MIC ([18]; Scedosporium boydii) was > 16 µM, the “% Remaining at 120 min” value ([19]; Human Plasma) was 97.7% and the “Half Life” value ([19]; Human Plasma) was >289; >289 min. For the same molecule, the “% Remaining at 120 min” value ([19]; Rat Plasma) was 88.3%, the half-life at 1 µM ([19]; Human Plasma) was > 4.82 h and the half-life at 1 µM ([19]; Mouse Plasma) was > 4.82 h. For the same molecule, the half-life at 1 µM ([19]; Rat Plasma) was > 4.82 h, the half-life at 1 µM ([20]; liver microsomes, read-out: Liver microsome T1/2) was > 2.42 h and the inhibition at 10 min, 10 µM ([21]; human liver microsomes, probe 5 in 1 substrate cocktail (substrates not named), read-out: P450 2C19 % Inhibition) was 7.3%. For the same molecule, the MHC [22, 24] was 8.4 µM, the MHC ([22]; summary table, unit not given) was 8.4 and the solubility ([23]; 5% dextrose in water (D5W), saline or isotonic, thermodynamic from solid) was 23 µM (≈ 21.3 µg/mL).

For `CC1C=CC=CC=CC=CC=CC=CC=CC(OC2OC(C)C(O)C(N)C2O)CC2OC(O)(CC(O)CC(O)C(O)CCC(O)CC(O)CC(=O)OC(C)C(C)C1O)CC(O)C2C(=O)NCCF` (stereo not shown) [Compound BM], the MIC [1] was 1.5 µM (≈ 1.45 µg/mL), the MIC [2] was 0.92 µM (≈ 0.892 µg/mL) and the MIC [3] was 1 µM (≈ 0.969 µg/mL). For the same molecule, the MIC [4] was 0.92 µM (≈ 0.892 µg/mL), the “MIC Coccidioides posadasii” value [5] was 0.42 µM (≈ 0.407 µg/mL) and the MIC [6] was 8.8 µM (≈ 8.53 µg/mL). It also gave an MIC [7] of 2.67 µM (≈ 2.59 µg/mL), an MIC [8] of 1 µM (≈ 0.969 µg/mL) and an MIC [9] of 1 µM (≈ 0.969 µg/mL). The MIC [10] was <0.03 µM, the MIC [11] was 8.3 µM (≈ 8.04 µg/mL) and the “MICavg moulds (159 strains)” value [12] was 2.2. For the same molecule, the MIC [12] was 2.3 µM (≈ 2.23 µg/mL), the MIC [13] was 2.4 µM (≈ 2.33 µg/mL) and the MIC [14] was 2 µM (≈ 1.94 µg/mL). For the same molecule, the MIC [15] was 3.3 µM (≈ 3.2 µg/mL), the MIC [16] was 6.67 µM (≈ 6.46 µg/mL) and the MIC [17] was >16 µM. For the same molecule, the MIC [18] was >16 µM, the “Half Life” value ([19]; Human Plasma) was >289; >289 min and the “Half Life” value ([19]; Mouse Plasma) was >289; >289 min. The “Liver microsome T1/2” value [20] was >2.42 h, the “P450 2C19 % Inhibition” value [21] was 19.7% and the MHC ([22]; summary table, unit not given) was >100. For the same molecule, the “Solubility in D5W” value [23] was 150 µM (≈ 145 µg/mL) and the “Fold of Increase w.r.t. AmB (solubility)” value [23] was 6.5.
